Earlier results as cited in patent US20040116402A1, “Superoxide dismutase mimics for the treatment of ocular disorders and diseases” (priority 2002, published 2004).

Legend:
[1] = tested on: albino rats
[2] = tested on: autoimmune diabetes by a diabetogenic T-cell clone; details: in a cloned cell (diabetogenic T-cell clone adoptive transfer)
[3] = tested on: diabetic rats

SMILES: CC1(C)CC(O)CC(C)(C)N1[O] [4-hydroxy-2,2,6,6-tetramethylpiperidine-1-oxyl]
- light-induced retinal damage [1]: inhibited light-induced retinal damage

SMILES: CCN1C=CC=C/C1=C1/C2=NC(=C(c3cccc[n+]3CC)C3=NC(=C(c4cccc[n+]4CC)c4ccc([n-]4)C(c4cccc[n+]4CC)=C4C=CC1=N4)C=C3)C=C2.[Cl-].[Cl-].[Cl-].[Cl-].[Cl-].[Mn+3] [AEOL10113]
- onset of diabetes [2]: delay the onset of diabetes

SMILES: [Cl-].[Cl-].[Mn+2].c1cc2nc(c1)CN[C@@H]1CCCC[C@H]1NCCN[C@@H]1CCCC[C@H]1NC2 [M40403]
- vascular and neural dysfunction [3]: prevented vascular and neural dysfunction
